Reference: patent US6790971B1, “19-Nor-steroids” (Aventis Pharma S.A., priority 1989, dated 2004)

Assays:
[1] = test system: MCF-7 mammary tumoral cells; test: Anti-proliferative activity upon the growth of MCF-7 cells (DNA measurement with DABA); assay type: cell-based; details: 6 days, inhibition of the increase of DNA, read-out: concentration which inhibited the growth of MCF7 to an extent of 50% (IC50)
Procedure: B. Anti-proliferative activity of the products of the invention upon the growth of MCF-7 mammary tumoral cells.
The MCF-7 strains were kept under culture in FCS(1) medium at 37° C. under a humid atmosphere containing 5% CO2 and the cells at subconfluence were harvested by trypsination (0.05% trypsine, 0.02% EDTA), then rinsed by gentle centrifugation. A sample of the cells in suspension was counted on Malassez cell.
The cells, resuspended in FCS medium, were seeded at a rate of 30,000 cells per pit in multi-pit plates (24 pits of 2.5 cm^2) and twenty four hours after seeding (DO), the product to be tested was added to the medium in ethanolic solution (final concentration in ethanol: 0.1%), at a concentration of 10^−12 to 10^−6 M, the control pits receiving the same concentration of ethanol. The media were renewed every 48 hours and at the end of the experiment (D6), the medium was sucked off and the cells were immediately fixed with 150 microliters of methanol to estimate the DNA. The anti-proliferative activity of the products was evaluated by their capacity to inhibit the increase of DNA.
The DNA was measured by a fluorimetric method employing DABA (3,5-diaminobenzoic acid) (2): 150 microliters of DABA were added to each of the pits and the plates were then incubated for 45 minutes at 56° C., then 2 ml of 1 N HCl were added. The fluorescence was measured with the aid of a fluorimeter (length of the exiting wave: 408 nm, length of the emitting wave: 501 nm). The quantity of DNA per pit was evaluated with reference to a standard scale obtained by treating a standard DNA from calf thymus under the same conditions.
The concentration in nM which inhibited the growth of MCF7 to an extent of 50% (IC50) was determined in the manner indicated below:
(1) The fetal calf serum (FCS) culture medium was prepared as follows: MEM medium (minimal essential medium) to which were added:
Non-essential amino acids (GIBCO),
Peni-strepto (100 U/ml penicillin, 0.1 mg/ml streptomycin),
Fetal calf serum containing no steroids (10% final concentration).
(2) Puzas and Goodman, Analytical Biochemistry, Vol. 86, pp. 50, 1978.

[2] = target: T1, Estrogenic Receptor of Mouse Uterus (Mus musculus, UniProt P19785); test: Relative affinity of the bond, estrogen receptor (tritiated estradiol displacement); assay type: binding; details: for affinity for the estrogen receptors: at the second time (incubation); for Relative affinity of the bond (RAB), Oestrogen, 2 H: incubation 2 H at 0° C.; for Relative affinity of the bond (RAB), Oestrogen, 2 H / Relative affinity of the bond (RAB), Oestrogen, 6 H / Relative affinity of the bond (RAB), Oestrogen Receptors, 2 Hrs / Relative affinity of the bond (RAB), Oestrogen Receptors, 5 Hrs: RAB=100(CH)/(CX); for Relative affinity of the bond (RAB), Oestrogen, 6 H: incubation 6 H (second time); for Relative affinity of the bond (RAB), Oestrogen Receptors, 2 Hrs: incubation time 2 Hrs; for Relative affinity of the bond (RAB), Oestrogen Receptors, 2 Hrs / Relative affinity of the bond (RAB), Oestrogen Receptors, 5 Hrs: second part of the table; for Relative affinity of the bond (RAB), Oestrogen Receptors, 5 Hrs: incubation time 5 Hrs
T1 construct: their uteri were removed, then homogenized at 0° C; from tissue; host or cells: uterine cytosol (105,000 g supernatant) of immature female mice
T1 sequence (P19785 1-599): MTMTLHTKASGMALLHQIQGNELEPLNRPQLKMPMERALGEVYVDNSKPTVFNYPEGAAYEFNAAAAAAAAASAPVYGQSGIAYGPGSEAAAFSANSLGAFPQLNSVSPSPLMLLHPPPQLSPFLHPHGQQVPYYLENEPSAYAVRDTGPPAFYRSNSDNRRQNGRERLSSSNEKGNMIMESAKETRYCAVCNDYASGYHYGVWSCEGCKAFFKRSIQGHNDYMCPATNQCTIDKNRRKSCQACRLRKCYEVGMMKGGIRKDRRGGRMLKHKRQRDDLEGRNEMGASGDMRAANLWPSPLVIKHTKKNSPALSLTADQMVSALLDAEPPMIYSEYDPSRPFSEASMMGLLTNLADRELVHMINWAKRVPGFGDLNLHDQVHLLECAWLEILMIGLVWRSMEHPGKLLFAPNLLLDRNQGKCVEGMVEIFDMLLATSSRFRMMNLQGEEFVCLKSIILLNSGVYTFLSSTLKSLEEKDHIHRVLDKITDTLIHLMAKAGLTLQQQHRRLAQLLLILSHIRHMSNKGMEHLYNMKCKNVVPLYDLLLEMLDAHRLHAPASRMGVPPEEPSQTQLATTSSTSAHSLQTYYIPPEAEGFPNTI
Procedure: Estrogenic Receptor of Mouse Uterus:
Impuberal female mice aged from 18 to 21 days were killed and their uteri were removed, then homogenized at 0° C. with the aid of a Potter teflon-glass in a TS buffered solution (10 mM Tris, 0.25 M saccharose, HCL pH 7.4) (1 g of tissue for 25 ml of TS). The homogenate was ultracentrifuged (105,000 g×90 min) at 0° C. and aliquots of the supernatant were incubated at 0° C. or at 25° C. for a time (t) with a constant concentration (T) of tritiated estradiol in the presence of increasing concentrations (0-1000×10^−9 M) either of cold estradiol, or of the cold product to be tested. The concentration (B) of bound tritiated estradiol was measured in each incubate by the technique of adsorption on dextran carbon.
Calculation of the Relative Affinty of the Bond
The calculation of the Relative Affinity of the Bond (RAB) was identical for all the receptors. The following 2 curves were traced; the percentage of the bound tritiated hormone [formula]
was a function of the logarithm of the concentration of the cold reference hormone and [formula]
as a function of the logarithm of the concentration of the cold product tested.
One determined the straight line of the equation [formula]
The intersections of the straight line I50 and of the curves make it possible to evaluate the concentrations of the cold reference hormone (CH) and of the tested cold product (CX) which inhibit to an extend of 50% the binding of the tritiated hormone upon the receptor. The relative affinity of the bond (RAB) of the tested product is determined by the equation

Compound | IC50 [1] [nM] | Relative affinity of the bond (RAB), Oestrogen, 2 H [2] | Relative affinity of the bond (RAB), Oestrogen, 6 H [2] | Relative affinity of the bond (RAB), Oestrogen Receptors, 2 Hrs [2] | Relative affinity of the bond (RAB), Oestrogen Receptors, 5 Hrs [2] | affinity for the estrogen receptors [2]
CCCCN(C)C(=O)CCCCCCCOc1ccc([C@H]2C[C@]3(C)[C@@H](O)CC[C@H]3[C@@H]3CCc4cc(O)ccc4[C@H]32)cc1 [Example 46, N-butyl-8-[4-(3,17β-dihydroxy-Δ^1,3,5,(10)-estratrien-11β-yl)-phenoxy]-N-methyl Octanamide] | 0.006 | 0.3 | 65 | – | – | marked affinity
CN(CC(F)(F)C(F)(F)C(F)(F)F)C(=O)CCCCCCCOc1ccc([C@H]2C[C@]3(C)[C@@H](O)CC[C@H]3[C@@H]3CCc4cc(O)ccc4[C@H]32)cc1 [Example 82, 8-(4-(δ^1,3,5(10)-estratrien-3,17β-diol-11β-yl)-phenoxy)-N-(2,2,3,3,4,4,4-heptafluorobutyl)-N-methyl-octanamide] | 0.02 | – | – | 0 | 23 | –
CC(C)N(C)C(=O)COCCCCCCCC[C@H]1C[C@]2(C)[C@@H](O)CC[C@H]2[C@@H]2CCc3cc(O)ccc3[C@@H]12 [Example 71, [[8(3,17beta-dihydroxy-estra-1,3,5(10)-trien-11beta-yl)-octyl]-oxy]-N-methyl-N-(1-methylethyl) acetamide] | 0.1 | 0.6 | 50 | – | – | marked affinity
CCCCN(C)C(=O)CSCCCCCOc1ccc([C@H]2C[C@]3(C)[C@@H](OC(=O)CCC(=O)O)CC[C@H]3[C@@H]3CCc4cc(O)ccc4[C@H]32)cc1 [Example 96, Monobutanedioate of 11β-(4-(5-((2-(Butyl-Methylamino)-2-Oxoethyl)-Thio)-Pentyloxy)-Phenyl)δ^1,3,5(10)-Estratrien-3-ol-17 β-yl] | – | – | – | – | 16 | –
CCCCN(C)C(=S)COCCCCCOc1ccc([C@H]2C[C@]3(C)[C@@H](O)CC[C@H]3[C@@H]3CCc4cc(O)ccc4[C@H]32)cc1 [Example 78, N-butyl-[5-[4-(3,17β-dihydroxy-δ^1,3,5(10)-estratrien-11β-yl)-phenoxy]-pentyloxy]-N-methyl-ethanethioamide] | 0.03 | – | – | – | 20 | –
CCCCN(C)C(=O)CCCCCCCc1ccc([C@H]2C[C@]3(C)[C@@H](O)CC[C@H]3[C@@H]3CCc4cc(O)ccc4[C@H]32)cc1 [Example 8, N-Butyl-4-[3,17β-dihydroxy-Δ^1,3,5(10)-estratrien-11β-yl]-N-methyl benzene octanamide] | 0.04 | – | – | – | – | marked affinity
CCCCN(C)C(=O)COCCCCCC#Cc1ccc([C@H]2C[C@]3(C)[C@@H](O)CC[C@H]3[C@@H]3CCc4cc(O)ccc4[C@H]32)cc1 [Example 37, 2-((7-(4-(3,17β-dihydroxy-Δ^1,3,5(10)-estratrien-11β-yl)-phenyl)-6-heptynyl.)-oxy)-N-butyl-N-methyl Acetamide] | 0.03 | 0.6 | 28 | – | – | marked affinity
CCCCN(C)C(=S)CCCCCCCOc1ccc([C@H]2C[C@]3(C)[C@@H](O)CC[C@H]3[C@@H]3CCc4cc(O)ccc4[C@H]32)cc1 [Example 79, N-butyl-8-(4-(3,17β-dihydroxy-δ^1,3,5(10)-estratrien-11β-yl)-phenoxy)-N-methyloctanethioamide] | 0.035 | – | – | – | 16 | –
CCCCN(C)C(=O)CCCCCC#Cc1ccc([C@H]2C[C@]3(C)[C@@H](O)CC[C@H]3[C@@H]3CCc4cc(O)ccc4[C@H]32)cc1 [Example 35] | 0.04 | 0.13 | 12 | – | – | –

More lines, main results first:

IC50 [1] [nM] | Relative affinity of the bond (RAB), Oestrogen, 2 H [2] | Relative affinity of the bond (RAB), Oestrogen, 6 H [2] | Relative affinity of the bond (RAB), Oestrogen Receptors, 2 Hrs [2] | Relative affinity of the bond (RAB), Oestrogen Receptors, 5 Hrs [2] | Compound | affinity for the estrogen receptors [2]
0.007 | – | – | 3.3 | 29 | CCCCN(C)C(=O)COCCCCCCOc1ccc([C@H]2C[C@]3(C)[C@@H](O)CC[C@H]3[C@@H]3CCc4cc(O)ccc4[C@H]32)cc1 [Example 83] | –
0.002 | 4.0 | 3.0 | – | – | CCCCN(C)C(=O)COCCCCCOc1ccc([C@H]2C[C@]3(C)[C@@H](O)CC[C@H]3[C@@H]3CCc4cc(O)ccc4[C@H]32)cc1 [Example 43, N-butyl-[5-[4-(3,17β-dihydroxy-Δ^1,3,5(10)-estratrien-11β-yl)-phenoxy]-pentyloxy]-N-methyl acetamide] | –
0.009 | – | – | – | 11.7 | CCCCN(C)C(=O)CSCCCCCc1ccc([C@H]2C[C@]3(C)[C@@H](O)CC[C@H]3[C@@H]3CCc4cc(O)ccc4[C@H]32)cc1 [Example 86] | –
0.01 | 1.2 | 45 | – | – | C#C[C@]1(O)CC[C@H]2[C@@H]3CCc4cc(O)ccc4[C@H]3[C@@H](CCCCCCCCCCC(=O)N(C)C(C)C)C[C@@]21C [Example 55, 3,17β-Dihydroxy-N-Methyl-N-Isopropyl-19-Nor-17α-Δ^1,3,5(10)-Pregnatrien-20-Yn-118-Undecanamide] | marked affinity
0.015 | – | – | 2.8 | 47 | CCCCN(C)C(=O)CCCCCCCSc1ccc([C@H]2C[C@]3(C)[C@@H](O)CC[C@H]3[C@@H]3CCc4cc(O)ccc4[C@H]32)cc1 [Example 92, N-Butyl-8-(4-(δ^1,3,5(10)-Estratrien-3,17β-Diol-11 β-yl)-Phenyl-Thio)-N-Methyl-Octanamide] | marked affinity
